From the NIST ThermoML archive (doi:10.1016/j.tca.2017.07.015)
± gives the expanded uncertainty stated by the source.

Columns and labels:
[1] = Crystal; DTA
[2] = Molar enthalpy of transition or fusion; settings: Crystal; DSC

Normal melting temperature [1]: 29.70 ± 0.5 °C
Molar enthalpy of transition or fusion [2]: 3.39 ± 0.335 kcal/mol
Compound: ON=Cc1ccccc1 [benzaldehyde oxime]
